{
  "source": "patent US11607414B2",
  "about": "“Small molecule inhibitors of EGFR and PI3K” (The Regents of the University of Michigan, priority 2014, dated 2023)",
  "key": {"[1]": {"molecular_target": "PIK3CA (Homo sapiens, UniProt P42336)", "sequence (P42336 whole entry)": "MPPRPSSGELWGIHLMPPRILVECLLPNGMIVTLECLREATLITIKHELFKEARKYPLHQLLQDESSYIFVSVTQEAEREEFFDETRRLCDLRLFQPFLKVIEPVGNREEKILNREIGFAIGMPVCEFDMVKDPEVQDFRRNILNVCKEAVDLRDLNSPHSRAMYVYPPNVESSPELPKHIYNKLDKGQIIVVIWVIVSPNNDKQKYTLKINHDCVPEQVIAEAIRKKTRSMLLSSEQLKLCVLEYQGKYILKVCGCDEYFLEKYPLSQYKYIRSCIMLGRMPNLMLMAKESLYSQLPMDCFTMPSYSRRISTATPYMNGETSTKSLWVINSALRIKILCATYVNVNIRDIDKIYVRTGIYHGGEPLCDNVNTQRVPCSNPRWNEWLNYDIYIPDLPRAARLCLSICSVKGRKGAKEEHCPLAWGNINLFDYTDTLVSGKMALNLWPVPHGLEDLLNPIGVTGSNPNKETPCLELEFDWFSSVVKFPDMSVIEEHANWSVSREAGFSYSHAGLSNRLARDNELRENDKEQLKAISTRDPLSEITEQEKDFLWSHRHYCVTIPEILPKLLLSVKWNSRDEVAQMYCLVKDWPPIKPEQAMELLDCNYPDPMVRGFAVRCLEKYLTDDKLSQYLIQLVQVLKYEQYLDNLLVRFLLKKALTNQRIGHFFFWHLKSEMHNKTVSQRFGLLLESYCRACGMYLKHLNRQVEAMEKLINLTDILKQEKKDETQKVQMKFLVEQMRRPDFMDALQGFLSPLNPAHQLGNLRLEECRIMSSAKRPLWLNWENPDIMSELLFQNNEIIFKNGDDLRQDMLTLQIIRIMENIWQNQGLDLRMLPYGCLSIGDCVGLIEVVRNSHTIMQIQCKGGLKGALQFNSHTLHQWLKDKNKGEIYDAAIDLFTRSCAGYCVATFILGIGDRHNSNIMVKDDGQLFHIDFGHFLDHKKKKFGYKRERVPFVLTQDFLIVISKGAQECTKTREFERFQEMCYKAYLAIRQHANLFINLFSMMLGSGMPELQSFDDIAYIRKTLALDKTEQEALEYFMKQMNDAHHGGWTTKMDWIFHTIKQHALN", "sequence (P27986 whole entry partner)": "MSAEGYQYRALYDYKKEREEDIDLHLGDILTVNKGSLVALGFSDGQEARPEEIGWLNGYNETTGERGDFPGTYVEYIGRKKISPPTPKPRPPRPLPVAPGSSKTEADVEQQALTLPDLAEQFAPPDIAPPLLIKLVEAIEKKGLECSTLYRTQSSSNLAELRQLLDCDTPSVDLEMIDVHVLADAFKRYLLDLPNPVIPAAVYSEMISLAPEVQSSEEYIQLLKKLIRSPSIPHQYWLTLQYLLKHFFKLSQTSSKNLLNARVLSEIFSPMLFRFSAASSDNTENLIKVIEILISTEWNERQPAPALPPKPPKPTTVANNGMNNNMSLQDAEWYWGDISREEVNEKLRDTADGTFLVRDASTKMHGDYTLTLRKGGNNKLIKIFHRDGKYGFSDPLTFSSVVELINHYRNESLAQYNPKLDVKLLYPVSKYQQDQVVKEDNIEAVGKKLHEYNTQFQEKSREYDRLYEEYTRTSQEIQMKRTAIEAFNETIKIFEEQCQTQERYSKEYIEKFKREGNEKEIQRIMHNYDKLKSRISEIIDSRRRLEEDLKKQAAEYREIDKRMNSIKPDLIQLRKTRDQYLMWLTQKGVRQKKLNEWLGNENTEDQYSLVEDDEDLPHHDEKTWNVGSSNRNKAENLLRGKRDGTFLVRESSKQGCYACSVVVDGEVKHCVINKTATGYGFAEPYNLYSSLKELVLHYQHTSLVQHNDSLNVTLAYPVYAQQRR", "test": "ADAPTA universal kinase assay, PIK3CA", "type": "biochemical", "description": "Various compounds were tested for their ability to inhibit EGFR and PIK3CA. The assays determining inhibitions are given in Example 2 Assays-Z′-LYTE® and ADAPTA.\nEnzyme: The ADAPTA universal kinase assay is a homogenous, fluorescent based immunoassay for the detection of ADP. In contrast to ATP depletion assays, the ADAPTA assay is extremely sensitive to ADP formation such that a majority of the signal change occurs in the first 10-20% conversion of ATP to ADP. This makes the ADAPTA universal kinase assay ideally suited for use with low activity kinases.\nThe principle of the ADAPTA universal kinase assay is outlined below. The assay itself can be divided into two phases: a kinase reaction phase, and an ADP detection phase. […]\nADP formation is determined by calculating the emission ratio from the assay well. The emission ratio is calculated by dividing the intensity of the tracer (acceptor) emission by the intensity of the Eu (donor) emission at 615 nm as shown in the equation below.\nAdapta® Assay Conditions' • Test Compounds: The Test Compounds are screened in 1% DMSO (final) in the well. […] ATP Km apparent is previously determined using a radiometric assay except when no substrate is available in which case an Adapta® assay is conducted. • Detection Mix: The Detection Mix is prepared in TR-FRET Dilution Buffer. […] Read on fluorescence plate reader and analyze the data."}, "[2]": {"test_system": "KRAS mutant HCT-116 cells", "test": "HCT-116 cell viability / proliferation (Cell Titer Glo)", "type": "cell-based", "description": "Cell proliferation was determined using the Cell Titer Glo assay (Promega, Madison, Wis.). Cell lines were seeded at a density between 2,000 and 5,000 cells per well in a 96-well plate. Twenty four hours after plating, cells were dosed with varying concentrations of drug, either as a single agent or in combination. The signal for Cell Titer Glo was determined 72 or 96 hours after dosing."}, "[3]": {"test_system": "phosphorylation of AKT in HCT-116 tumors", "test": "In vivo pharmacodynamics in subcutaneous HCT-116 tumors, pAKT", "settings": "single oral dose 100 mg/kg, two hours post-dosing", "source_text": "However, additional synthesis of MOL-162 is needed to allow a full pharmacodynamic time course study to be carried out to determine the maximal degree of target inhibition of both targets after single and repeated daily dosing."}, "[4]": {"test": "Solubility comparison", "type": "physicochemical"}},
  "data": [
    {"smiles": "CS(=O)(=O)Nc1cncc(-c2ccc3ncnc(Nc4cccc(Cl)c4)c3c2)c1", "note": "[MOL-162, N-(5-(4-((3-chlorophenyl)amino)quinazolin-6-yl)pyridin-3-yl)methanesulfonamide]", "values": [
      {"measurement": "inhibition of / potency against purified PIK3CA (in words)", "setting": "[1]", "value": "potent dual inhibition"},
      {"measurement": "cytotoxicity", "setting": "[2]", "value": "cytotoxicity"},
      {"measurement": "phosphorylation of AKT in tumors", "setting": "[3]", "value": "not as strongly inhibited"},
      {"measurement": "solubility (comparison)", "setting": "[4]", "value": "significantly more soluble than MOL-153"}
    ]}
  ]
}
